Results: patent US9284283B2, “Macrocyclic compounds for modulating IL-17” (ENSEMBLE THERAPEUTICS CORPORATION, priority 2012, dated 2016)

Tests used:
[1] = target: T1, biotinylated human IL-17 (binding to IL17R/Fc) (Homo sapiens, UniProt Q16552); experiment: IL-17 competition ELISA II (captured IL17R/Fc, biotinylated IL-17)
T1 construct: purchased R&D Systems 317-ILB (IL-17, biotinylated); 177-IR (IL17R/Fc)
T1 sequence (Q16552 20-155 limits assumed): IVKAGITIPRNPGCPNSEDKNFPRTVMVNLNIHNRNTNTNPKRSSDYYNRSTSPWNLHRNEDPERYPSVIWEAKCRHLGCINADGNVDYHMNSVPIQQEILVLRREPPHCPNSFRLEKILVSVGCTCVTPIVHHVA
Procedure, shortened: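 Anti-human IgG-coated plates captured IL17R/Fc (10 nM), then compound (5-fold dilutions from 1 μM) and biotinylated human IL-17 (20 nM stock) were added for 30 min at room temperature in PBST. Bound IL-17 detected by streptavidin-HRP/TMB at 450 nm. IC50 from 4-parameter logistic fit between no-competitor and blank controls.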

[2] = test system: IL-17A induced secretion of IL-6 in primary human RASF cells; experiment: Inhibition of IL17A induced secretion of IL6 in human rheumatoid arthritis synovial fibroblast (RASF) cells; format: cell-based; conditions: Homo sapiens, Fibroblast
Description: This assay was used to determine the extent of inhibition of IL-17A induced secretion of IL-6 in primary human rheumatoid synovial fibroblast (RASF) cells by compounds of the invention. IL-17A is known to stimulate IL-6 production in RASF cells.
Low passage (passage 2-8) Primary human RASF cells (Asterand) were maintained in maintenance medium. Cells were detached from flasks by tryptic digestion and the cell density of the suspension determined. To each well of a 96 well culture plate was added 100 μL of seeding medium containing 50,000 cells/mL and the plate incubated overnight in a humidified 37° C., 5% CO2 incubator. The medium was replaced with fresh assay medium and cells were incubated for additional 5 hours in a humidified 37° C., 5% CO2 incubator prior to stimulation with recombinant human IL-17A (“rhIL-17A”). Prior to addition to cells, rhIL-17A (30 ng/mL) in assay medium was incubated with either DMSO alone, compounds, or anti-IL17 receptor antibody (3 μg/mL) for 1 hour at 37° C. The final concentration of DMSO in all samples was 0.25%. The final concentration of compounds varied from 0.03 μM to 25 μM.
Immediately before stimulation, cells were washed once with fresh assay medium. Then, 100 μL of the test samples was added in triplicate wells and the plates incubated for 20 hours in a humidified 37° C., 5% CO2 incubator. The assay medium from each well was collected and the IL-6 concentration in cell culture supernatants was determined by ELISA either immediately or after storage at −20° C.
A water-soluble tetrazolium salt (WST1) viability assay was immediately performed on the cells after the conditioned medium was collected using a WST1 reagent purchased from Roche. The concentration of IL-6 obtained from ELISA was normalized by the WST1 data.

Row | IC50 [1] | Compound | IC50 [2]
1 | < 100 nM | O=C1CC2(CCCC2)CC(=O)N[C@H](Cc2ccc(NC(=O)[C@H](Cc3ccccc3Cl)NC(=O)Cc3ccc(F)cc3)cc2)C(=O)N[C@H](CC2CCCCC2)C(=O)NCCCCCN1 [Compound 499] | 100 to 1000 nM
2 | < 100 nM | C[C@H]1NC(=O)[C@@H](Cc2ccc(NC(=O)[C@H](Cc3ccccc3C(F)(F)F)NC(=O)C3(c4ccc(F)cc4)CC3)cc2)NC(=O)CC2(CCCC2)CC(=O)N(C)CCCCCNC1=O [Compound 507] | 1000 to 10000 nM
3 | < 100 nM | O=C1CC2(CCCC2)CC(=O)N[C@H](Cc2ccc(NC(=O)[C@H](Cc3ccccc3Cl)NC(=O)c3ccccc3)cc2)C(=O)NCCOCCOCCN1 [Compound 522] | 1000 to 10000 nM
4 | < 100 nM | C[C@H]1NC(=O)[C@@H](Cc2ccc(NC(=O)[C@H](Cc3ccccc3Cl)NC(=O)Cc3ccc(F)cc3)cc2)NC(=O)CC2(CCC2)CC(=O)NCCCCCNC1=O [Compound 535] | 1000 to 10000 nM
5 | < 100 nM | C[C@H]1NC(=O)[C@@H](Cc2ccc(NC(=O)[C@H](Cc3ccccc3Cl)NC(=O)C(F)(F)c3ccccc3)cc2)NC(=O)CC2(CCC2)CC(=O)NCCCCCNC1=O [Compound 536] | 100 to 1000 nM
6 | < 100 nM | C[C@H]1NC(=O)[C@@H](Cc2ccc(NC(=O)[C@H](Cc3ccccc3Cl)NC(=O)C(=O)c3ccccc3)cc2)NC(=O)CC2(CCCC2)CC(=O)NCCCCCNC1=O [Compound 549] | < 100 nM
7 | < 100 nM | C[C@H]1NC(=O)[C@@H](Cc2ccc(NC(=O)[C@H](Cc3ccccc3Cl)NC(=O)[C@@H](O)c3ccccc3)cc2)NC(=O)CC2(CCCC2)CC(=O)NCCCCCNC1=O [Compound 550] | 1000 to 10000 nM
8 | < 100 nM | C[C@H]1NC(=O)[C@@H](Cc2ccc(NC(=O)[C@H](Cc3ccccc3Cl)NC(=O)[C@H](O)c3ccccc3)cc2)NC(=O)CC2(CCCC2)CC(=O)NCCCCCNC1=O [Compound 551] | 1000 to 10000 nM
9 | < 100 nM | C[C@H]1NC(=O)[C@@H](Cc2ccc(NC(=O)[C@H](Cc3ccccc3Cl)Nc3nc4ccccc4o3)cc2)NC(=O)CC2(CCCC2)CC(=O)NCCCCCNC1=O [Compound 555] | < 100 nM

Continued, compound first:

Row | Compound | IC50 [1] | IC50 [2]
10 | O=C1CC2(CCCC2)CC(=O)N[C@H](Cc2ccc(NC(=O)[C@H](Cc3ccc(F)cc3Cl)NC(=O)Cc3ccc(F)cc3)cc2)C(=O)NCCOCCOCCN1 [Compound 502] | < 100 nM | 1000 to 10000 nM
11 | C[C@H]1NC(=O)[C@@H](Cc2ccc(NC(=O)[C@H](Cc3ccccc3Cl)NC(=O)C3(c4ccc(F)cc4)CC3)cc2)NC(=O)CC2(CCCC2)CC(=O)N[C@H](C(=O)O)CCCCNC1=O [Compound 513] | < 100 nM | 100 to 1000 nM
12 | Cc1ccccc1C[C@H](NC(=O)Cc1ccc(F)cc1)C(=O)Nc1ccc(C[C@H]2NC(=O)CC3(CCCC3)CC(=O)NCCCCCNC(=O)[C@@H](CCC(N)=O)NC2=O)cc1 [Compound 515] | < 100 nM | < 100 nM
13 | C[C@H]1NC(=O)[C@@H](Cc2ccc(NC(=O)[C@H](Cc3ccccc3Cl)NC(=O)Cc3ccc(F)cc3)cc2)NC(=O)CC2(CCCC2)CC(=O)N[C@H](C(=O)O)CCCCNC1=O [Compound 529] | < 100 nM | < 100 nM
14 | C[C@H]1NC(=O)[C@@H](Cc2ccc(NC(=O)[C@H](Cc3ccccc3Cl)NC(=O)Cc3ccc(F)cc3)cc2)NC(=O)CC2(CCCC2)CC(=O)N(C)CCN(C)CCN(C)C1=O [Compound 539] | < 100 nM | 1000 to 10000 nM
15 | C[C@H]1NC(=O)[C@@H](Cc2ccc(NC(=O)[C@H](Cc3ccccc3Cl)NC(=O)C(F)(F)c3ccccc3)cc2)NC(=O)CC2(CCCC2)CC(=O)N(C)CCN(C)CCN(C)C1=O [Compound 540] | < 100 nM | 1000 to 10000 nM
16 | C[C@H]1NC(=O)[C@@H](Cc2ccc(NC(=O)[C@H](Cc3ccccc3Cl)NC(=O)Cc3ccc(N(C)C)cc3)cc2)NC(=O)CC2(CCCC2)CC(=O)NCCCCCNC1=O [Compound 552] | < 100 nM | < 100 nM
17 | CN(C)c1ccc(CC(=O)N[C@@H](Cc2ccccc2Cl)C(=O)Nc2ccc(C[C@H]3NC(=O)CC4(CCCC4)CC(=O)NCCOCCOCCNC3=O)cc2)cc1 [Compound 553] | < 100 nM | 100 to 1000 nM
